In PubChem BioAssay AID248 (DTP/NCI, 2004):
Several values for one entry are separate records, joined by “and”; a condition that tells them apart may be missing. Equal entries are not always repeated. Inconclusive results and toxic doses are left out. Rule as the data show it: active = T/C of 150% or more; inactive = T/C below 125%.

Test system: L1210 leukemia ip in BDF1 mice, survival T/C
Assay: NCI In Vivo Anticancer Drug Screen. Data for tumor model L1210 Leukemia (intraperitoneal) in B6D2F1 (BDF1) mice
Conditions: endpoint: mean survival time, higher = longer survival
Outline: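 Read-out is survival time, reported as the treated-group measurement over the vehicle-control measurement.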

[1] = dose: 100.0 mg/kg/injection, schedule: Q04DX002 (ip), vehicle: saline with Tween-80
[2] = dose: 200.0 mg/kg/injection, schedule: Q04DX002 (ip), vehicle: saline with Tween-80
[3] = dose: 400.0 mg/kg/injection, schedule: Q04DX002 (ip), vehicle: saline with Tween-80

Measured: T/C

CCCNC(=O)Oc1ccc(SC)cc1
inactive: dose: 100.0 mg/kg/injection, schedule: Q01DX001 (ip), vehicle: other 96 % of control | dose: 100.0 mg/kg/injection, schedule: Q01DX009 (ip), vehicle: other 94 % of control and 99 % of control | dose: 100.0 mg/kg/injection, schedule: Q04DX002 (ip), vehicle: other 93 % of control and 97 % of control | [1] 100 % of control | dose: 100.0 mg/kg/injection, schedule: Q04DX003 (ip), vehicle: saline with Tween-80 107 % of control | dose: 200.0 mg/kg/injection, schedule: Q01DX001 (ip), vehicle: other 98 % of control | dose: 200.0 mg/kg/injection, schedule: Q01DX009 (ip), vehicle: other 103 % of control | dose: 200.0 mg/kg/injection, schedule: Q04DX002 (ip), vehicle: other 97 % of control and 103 % of control | [2] 113 % of control | dose: 200.0 mg/kg/injection, schedule: Q04DX003 (ip), vehicle: saline with Tween-80 105 % of control | dose: 400.0 mg/kg/injection, schedule: Q01DX009 (ip), vehicle: other 89 % of control | dose: 400.0 mg/kg/injection, schedule: Q04DX002 (ip), vehicle: other 108 % of control and 86 % of control | [3] 106 % of control | dose: 400.0 mg/kg/injection, schedule: Q04DX003 (ip), vehicle: saline with Tween-80 100 % of control

O=C(Cc1ccccc1S(=O)(=O)Nc1ccccc1)c1ccccc1
inactive: dose: 100.0 mg/kg/injection, schedule: Q01DX001 (ip), vehicle: steriod suspending solution 96 % of control | dose: 200.0 mg/kg/injection, schedule: Q01DX001 (ip), vehicle: steriod suspending solution 86 % of control | dose: 400.0 mg/kg/injection, schedule: Q01DX001 (ip), vehicle: steriod suspending solution 91 % of control

CCCCNC(=S)NC1CC(O[C@H]2C[C@](O)(C(C)=O)Cc3c(O)c4c(c(O)c32)C(=O)c2c(OC)cccc2C4=O)OC(C)C1O (stereo partly specified)
inactive: dose: 100.0 mg/kg/injection, schedule: Q01DX009 (ip), vehicle: saline with Tween-80 94 % of control

CC(C)(C)SC(=O)Cc1ccc([N+](=O)[O-])cc1
inactive: dose: 50.0 mg/kg/injection, schedule: Q04DX002 (ip), vehicle: saline with Tween-80 90 % of control | [1] 100 % of control | [2] 93 % of control | [3] 87 % of control

CC1(C)N=C(N)N=C(N)N1c1ccc(OCCOc2ccc(S(=O)(=O)F)cc2)cc1
inactive: dose: 100.0 mg/kg/injection, schedule: Q01DX001 (ip), vehicle: gum acacia 101 % of control | dose: 200.0 mg/kg/injection, schedule: Q01DX001 (ip), vehicle: gum acacia 98 % of control | dose: 400.0 mg/kg/injection, schedule: Q01DX001 (ip), vehicle: gum acacia 103 % of control

COc1nc(=S)nc(OC)[nH]1
inactive: dose: 100.0 mg/kg/injection, schedule: Q01DX Z (ip), vehicle: methylcellulose (MC) 95 % of control
